Laboratory results from patent US5032577A, “Peptidylaminodiols” (Abbott Laboratories, priority 1987, dated 1991).
Counter-ions that a name gives are not always drawn.

What follows are compounds tested against T1, human renal renin (Homo sapiens, UniProt P00797) (assay: Inhibition of human renal renin in vitro; angiotensin I formed measured by radioimmunoassay). Details: not given.
T1 construct: human renal renin, free from acid proteolytic activity; from tissue
T1 sequence (P00797 67-406): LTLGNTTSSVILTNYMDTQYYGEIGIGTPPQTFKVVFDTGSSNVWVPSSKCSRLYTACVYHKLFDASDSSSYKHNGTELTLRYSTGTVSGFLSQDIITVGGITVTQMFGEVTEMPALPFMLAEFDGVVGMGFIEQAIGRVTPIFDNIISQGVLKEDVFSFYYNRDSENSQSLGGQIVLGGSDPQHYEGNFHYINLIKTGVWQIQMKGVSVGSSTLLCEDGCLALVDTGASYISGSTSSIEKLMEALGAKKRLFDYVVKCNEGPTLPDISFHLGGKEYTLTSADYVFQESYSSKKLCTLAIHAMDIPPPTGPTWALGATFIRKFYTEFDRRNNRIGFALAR
Type: biochemical

| Compound | IC50 [nM] |
| --- | --- |
| COc1ccc(C[C@H](NC(=O)CCCCCN)C(=O)N[C@@H](Cc2c[nH]cn2)C(=O)N[C@@H](CC2CCCCC2)[C@@H](O)[C@@H](O)CC(C)C)cc1 [Example 173, 6-Aminohexanoyl-(4-methoxy)Phe-His Amide of (2S, 3R, 4S)-2-Amino-1-cyclohexyl-3,4-dihydroxy-6-methylheptane Diacetate Salt] | 0.9 |
| CC(C)C[C@H](O)[C@H](O)[C@H](CC1CCCCC1)NC(=O)[C@H](Cc1c[nH]cn1)NC(=O)[C@H](Cc1ccccc1)NC(=O)OCc1ccccc1 [Example 83, Cbz-Phe-His Amide of 2(S)-Amino-l-cyclohexyl-3(R), 4(S)-dihydroxy-6-methylheptane] | 0.6 |
| CC(C)C[C@H](O)[C@H](O)[C@H](CC1CCCCC1)NC(=O)[C@H](Cc1c[nH]cn1)NC(=O)[C@H](Cc1ccccc1)OC(=O)N1CCOCC1 [Example 111, 2(S)-[(4-Morpholinyl)carbonyl]oxy-3-phenylpropionyl-His Amide of 2(S)-Amino-l-cyclohexyl-3(R),4(S)-dihydroxy-6-methylheptane] | 0.5 |
| CC(C)C[C@H](NC(=O)[C@H](Cc1ccccc1)NC(=O)Cc1c[nH]cn1)C(=O)N[C@@H](CC1CCCCC1)[C@@H](O)[C@@H](O)CC(C)C [Example 88, (Imidazol-4-yl-acetyl)-Phe-Leu Amide of 2(S)-Amino-1-cyclohexyl-3(R),4(S)-dihydroxy-6-methylheptane] | 0.6 |
| CC(C)C[C@H](O)[C@H](O)[C@H](CC1CCCCC1)NC(=O)[C@H](Cc1c[nH]cn1)NC(=O)[C@@H](N)Cc1ccccc1 [Example 84, Phe-His Amide of 2(S)-Amino-l-cyclohexyl-3(R),4(S)-dihydroxy-6-methylheptane] | 10 |
| CNCC(=O)N[C@@H](Cc1ccccc1)C(=O)N[C@@H](Cc1c[nH]cn1)C(=O)N[C@@H](CC1CCCCC1)[C@@H](O)[C@@H](O)CC(C)C [Example 64, H-Sar-Phe-His Amide of 2(S)-Amino-l-cyclohexyl-3(R),4(S)-dihydroxy-6-methylheptane Diacetic Acid Salt] | 3 |
| COc1ccc(C[C@H](NC(=O)C2CCNCC2)C(=O)N[C@@H](Cc2c[nH]cn2)C(=O)N[C@@H](CC2CCCCC2)[C@@H](O)[C@@H](O)CC(C)C)cc1 [Example 179, H-Isonipecotyl-(4-OCH3)Phe-His Amide of 2(S)-Amino-1-cyclohexyl-3(R),4(S)-dihydroxy-6-methylheptane Diacetic Acid Salt] | 1 |
| CC(C)CC[C@H](O)[C@H](O)[C@H](CC1CCCCC1)NC(=O)[C@H](Cc1c[nH]cn1)NC(=O)[C@H](Cc1ccccc1)NC(=O)CC(C)(C)C [Example 43, TBA-Phe-His Amide of 2(S)-Amino-1-cyclohexyl-3(R),4(S)-dihydroxy-7-methyloctane] | 5 |
| CCOC(=O)N[C@@H](Cc1ccccc1)C(=O)N[C@@H](CC(C)C)C(=O)N[C@@H](CC1CCCCC1)[C@@H](O)[C@@H](O)CC(C)C [Example 36, Ethoxycarbonyl-phe-Leu Amide of 2(S)-Amino-cyclohexyl-3(R),4(S)-dihydroxy-6-methylheptane] | 0.4 |
| CC(=O)O[C@@H](Cc1ccccc1)C(=O)N[C@@H](Cc1c[nH]cn1)C(=O)N[C@@H](CC1CCCCC1)[C@@H](O)[C@@H](O)CC(C)C [Example 24, Ac-Pl-His Amide of 2(S)-Amino-l-cyclohexyl-3(R),4(S)-dihydroxy-6-methylheptane] | 2 |
| CC(C)C[C@H](NC(=O)[C@H](Cc1ccccc1)NCCC#N)C(=O)N[C@@H](CC1CCCCC1)[C@@H](O)[C@@H](O)CC(C)C [Example 58, [N-(2-Cyanoethyl)]Phe-Leu Amide of 2(S)-Amino-1-cyclohexyl-3(R),4(S)-dihydroxy-6-methylheptane] | 7 |
| CC(C)C[C@H](O)[C@H](O)[C@H](CC1CCCCC1)NC(=O)[C@H](Cc1c[nH]cn1)NC(=O)C(CC(=O)N1CCOCC1)Cc1ccccc1 (single isomer, unassigned) [Example 143] | 0.3 |
| COC(=O)C(N)CCCCC(=O)N[C@@H](Cc1ccc(OC)cc1)C(=O)N[C@@H](CC(C)C)C(=O)N[C@@H](CC1CCCCC1)[C@@H](O)[C@@H](O)CC(C)C (stereo partly drawn) [Example 193, 6-Amino-6-(methoxycarbonyl)hexanoyl-(4-OMe)Phe-Leu Amide of 2(S)-Amino-l-cyclohexyl-3(R),4(S)-dihydroxy-6-methylheptane] | 0.74 |
| CCOC(=O)N[C@@H](Cc1ccccc1)C(=O)N[C@@H](CC(C)C)C(=O)N[C@@H](CC1CCCCC1)[C@@H](O)[C@@H](O)CC [Example 47, Ethoxycarbonyl-Phe-Leu Amide of 2(S)-Amino-1-cyclohexyl-3(R),4(S)-dihydroxyhexane] | 1 |
| CC(=O)N(C)[C@@H](Cc1ccccc1)C(=O)N[C@@H](Cc1c[nH]cn1)C(=O)N[C@@H](CC1CCCCC1)[C@@H](O)[C@@H](O)CC(C)C [Example 23, Acetyl-N-methylPhe-His Amide of 2(S)-Amino-1-cyclohexyl-3(R),4(S)-dihydroxy-6-methylheptane] | 10 |
| CC(C)C[C@H](O)[C@H](O)[C@H](CC1CCCCC1)NC(=O)[C@H](Cc1c[nH]cn1)NC(=O)[C@H](Cc1ccccc1)NC(=O)CN(C)C(=O)OCc1ccccc1 [Example 63, Cbz-Sar-phe-His Amide of 2(S)-Amino-l-cyclohexyl-3(R),4(S)-dihydroxy-6-methylheptane] | 0.45 |
| CC(C)C[C@H](O)[C@H](O)[C@H](CC1CCCCC1)NC(=O)[C@H](Cc1c[nH]cn1)NC(=O)[C@H](CCc1ccccc1)NC(=O)C(C)C [Example 108, Isobutyryl-Homo-Phe-His Amide of 2(S)-Amino-l-cyclohexyl-3(R),4(S)-dihydroxy-6-methylheptane] | 0.55 |
| CC(C)C[C@H](O)[C@H](O)[C@H](CC1CCCCC1)NC(=O)[C@H](Cc1c[nH]cn1)NC(=O)C(CC(=O)N1CCOCC1)Oc1ccccc1 (single isomer, unassigned) [Example 141] | 5.5 |
| CC(C)C[C@@H](O)[C@H](O)[C@H](CC1CCCCC1)NC(=O)[C@H](Cc1c[nH]cn1)NC(=O)[C@H](Cc1ccccc1)NC(=O)OC(C)(C)C [Example 17, Boc-Phe-His Amide of 2(S)-Amino-l-cyclohexyl-3(R),4(R)-dihydroxy-6-methylheptane] | 35 |
| CC(C)C[C@H](O)[C@H](O)[C@H](CC1CCCCC1)NC(=O)[C@H](Cc1c[nH]cn1)NC(=O)[C@H](Cc1ccccc1)NC(=O)CC(C)(C)N [Example 75, H-[(β,β-di-Me)-β-Ala]-Phe-His Amide of 2(S)-Amino-1-cyclohexyl-3(R),4(S)-dihydroxy-6-methylheptane Diacetic Acid Salt] | 0.4 |
| CC(C)C[C@H](O)[C@H](O)[C@H](CC1CCCCC1)NC(=O)[C@H](Cc1c[nH]cn1)NC(=O)[C@H](Cc1ccccc1)NC(=O)C1CCN(C(=O)OCc2ccccc2)CC1 [Example 67, Cbz-Isonipectoyl-Phe-His Amide of 2(S)-Amino-l-cyclohexyl-3(R),4(S)-dihydroxy-6-methylheptane] | 0.8 |
| CC(C)C[C@H](O)[C@H](O)[C@H](CC1CCCCC1)NC(=O)[C@H](Cc1c[nH]cn1)NC(=O)[C@H](Cc1ccccc1)NC(=O)[C@@H]1CCCN1C(=O)OCc1ccccc1 [Example 76, Cbz-Pro-Phe-His Amide of 2(S)-Amino-l-cyclohexyl-3(R), 4(S)-dihydroxy-6-methyl- heptane] | 0.5 |
| CC(C)C[C@H](O)[C@H](O)[C@H](CC1CCCCC1)NC(=O)[C@H](Cc1c[nH]cn1)NC(=O)[C@H](Cc1ccccc1)NC(=O)C(C)(C)N [Example 85, alpha-Aminoisobutyryl-Phe-His Amide of 2(S)-Amino-1-cyclohexyl-3(R),4(S)-dihydroxy-6-methylheptane] | 0.4 |

Same assay, conditions: human renal renin free from acid proteolytic activity, renin substrate human angiotensinogen, 37° C., pH 6.0

| Compound | IC50 [nM] |
| --- | --- |
| CCOC(=O)N[C@@H](Cc1ccc(OC)cc1)C(=O)N[C@@H](Cc1c[nH]cn1)C(=O)N[C@@H](CC1CCCCC1)[C@@H](O)[C@@H](O)CC(C)C [Example 22, Ethoxycarbonyl-(OCH3)Tyr-His Amide of 2(S)-Amino-1-cyclohexyl-3(R),4(S)-dihydroxy-6-methylheptane] | 1.5 |
| CC(C)C[C@H](O)[C@H](O)[C@H](CC1CCCCC1)NC(=O)[C@H](C)NC(=O)[C@H](Cc1ccccc1)NC(=O)OC(C)(C)C [Example 33, Boc-phe-Ala Amide of 2(S)-Amino-l-cyclohexyl-3(R),4(S)-dihydroxy-6-methylheptane] | 5 |
| CC(C)(C)OC(=O)N[C@@H](Cc1ccccc1)C(=O)N[C@@H](Cc1c[nH]cn1)C(=O)N[C@@H](CC1CCCCC1)[C@@H](O)CO [Example 6, Boc-Phe-His Amides of 3(S)-Amino-4-cyclohexyl-1,2(R)-dihydroxybutane] | 50 |
| CC(C)C[C@H](O)[C@H](O)[C@H](CC1CCCCC1)NC(=O)[C@H](Cc1c[nH]cn1)NC(=O)[C@H](Cc1ccccc1)NC(=O)OC(C)(C)C [Example 15, Boc-Phe-His Amide of 2(S)-Amino-l-cyclohexyl-3(R),4(S)-dihydroxy-6-methylheptane] | 1.5 |
| CC(C)[C@H](O)[C@H](O)[C@H](CC1CCCCC1)NC(=O)[C@H](Cc1c[nH]cn1)NC(=O)[C@H](Cc1ccccc1)NC(=O)OC(C)(C)C [Example 46, Boc-Phe-His Amide of 2(S)-Amino-l-cyclohexyl-3(R),4(S)-dihydroxy-5-methylhexane] | 1.5 |
| CC(C)C[C@H](O)[C@H](O)[C@H](CC1CCCCC1)NC(=O)[C@H](Cc1c[nH]cn1)NC(=O)[C@H](Cc1ccccc1)NC(=O)N1CCNCC1 [Example 124, [(1-Piperazinyl)carbonyl]-Phe-His Amide of 2(S)-Amino-1-cyclohexyl-3(R),4(S)-dihydroxy-6-methylheptane Bis-Acetic Acid Salt] | 0.65 |
